Measured values: patent US4668677A, “4-phenylphthalazine derivatives, their preparation and their use as pharmaceuticals” (Mitsubishi Chemical Industries Limited, priority 1984, dated 1987)
Where two headings read alike, the source gives them in different places.

Tests used:
mice = assay: Anti-thrombotic activity: arachidonic acid-induced mortality in mice; assay type: in vivo, mouse (male ICR-JCL strain); settings: for Survival time of dead mice: arachidonic acid 100 mg/Kg i.v.; for Mortality: arachidonic acid 100 mg/Kg i.v. after 1 hour
Summary of the method: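 Male ICR-JCL mice (about 25 g) dosed orally with compound suspended in 1% tragacanth (20 ml/Kg), then 1 h later challenged i.v. with arachidonic acid 100 mg/Kg in 0.1M sodium carbonate. Readouts: time from challenge to death and mortality.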

[1] = tested on: PGI2-like substance in vessel walls; assay: Influence on production of PGI2-like substance in vessel walls (ADP aggregation with carotid artery ring); assay type: in vivo, rat (male Wistar-ST strain); settings: 1 hour, 10 μM ADP
Experimental: Male Wistar-ST strain rats with an average weight of about 250 g were used as experimental animals. After fasted for 18 hours, 6.3 ml of blood sample were obtained from corotid artery and immediately thereafter 0.7 ml of an anticoagulant (3.8% sodium citrate) was added and the sample was centrifuged at 200×g over 15 minutes to take platelet-rich plasma (PRP). The same procedures as above were carried out, using 5 to 6 rats, whereby 5-6 ml as normal PRP were stored and employed.
Reference aggregation values were determined by pouring 1 ml each of stored PRP into plastic test tubes, incubating them at 22° C. for 10 minutes and then determining aggregation rate. As an aggregation inducing agent, one employed 10 μM ADP (available from Sigma Co., Inc.)
A suspension of the compound of this invention or aspirin in a 1% aqueous solution of tragacanth was orally given to animals. After 1 hour, 5 mg of carotid artery were cut out in a ring shape and placed into a plastic test tube together with 1 ml of stored PRP. After incubated at 22° C. for 10 minutes, aggregation rate was determined.
Also, non-medicated groups were similarly treated and aggregation rate was determined.
Determination of blood platelet aggregation rate was made by means of an aggregometer.

femoral artery = assay: Action on blood pressure in femoral artery; assay type: in vivo, rabbit (male New Zealand White)
Experimental: (§1) Male New Zealand White rabbits (body weight of 2.8 Kg to 3.5 Kg) were used and anesthetized with pentobarbital sodium. Blood flow volumes in the carotid artery and femoral artery were measured and recorded via a non-blood observing type of a probe for measuring blood flow volume. Also, blood pressure in femoral artery was simultaneously measured and recorded with measurement of blood flow.
(§2) The compound of this invention was dissolved in an aqueous solution containing 1% tartaric acid and 1% dimethylacetamide, while papaverine hydrochloride dissolved in 0.9% physiological saline. These test compounds were intravenously given through a residual polyethylene tube within femoral vein.

blood platelets = assay: Activity to inhibit the aggregation of blood platelets (collagen, ex vivo after oral administration); assay type: in vivo, rat (male Wistar-ST strain); settings: Rattus norvegicus, Platelet
Summary of the method: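 Male Wistar-ST rats (~250 g, n=8) received compound orally at 10 mg/Kg in 1% tragacanth suspension. Carotid blood was taken 1 h later and PRP/PPP prepared by centrifugation. Aggregation was induced with collagen at 7 to 10 μg/ml, and inhibition was calculated against vehicle-dosed controls.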

in vivo = settings: rat, po, rats
carotid artery = assay: Action on blood flow volume in carotid artery; assay type: in vivo, rabbit (male New Zealand White)
Experimental: as §1, §2

rabbits = assay: Anti-thrombotic activity: arachidonic acid-induced mortality in rabbits; assay type: in vivo, rabbit (male New Zealand White)
Experimental: Male ICR-JCL strain mice with an average body weight of about 25 g and male New Zealand White rabbits with an average body weight of about 3 Kg were used.
Where rabbits were used as experimental animals, a suspension of the test compound in a 1% tragacanth aqueous solution was orally administered to animals at 5 ml/Kg. Two hours after the administration, an arachidonic acid solution dissolved in a 0.1M potassium carbonate solution was injected into pinna vein at 1.4 mg/Kg.
Evaluation of activity was effected with mortality at the time when arachidonic acid given. If survived at the first administration of arachidonic acid, arachidonic acid was administered after 6 hours, 24 hours, 48 hours and 72 hours from the administration of the test compound, respectively, and mortality was determined in respective cases.

## CCC(CC)Nc1nnc(-c2ccccc2)c2ccccc12 [Compound 2, 1-(1-ethylpropylamino)-4-phenylphthalazine]
mice; 10 mg/Kg oral
  Survival time of dead mice: 127 ± 14 s
  Mortality: 86%
mice; 30 mg/Kg oral
  Survival time of dead mice: 127.5 ± 14 s
  Mortality: 86%
mice; 100 mg/Kg oral
  Mortality: 0%
mice; 300 mg/Kg oral
  Mortality: 0%
[1]; 3 mg/Kg oral
  Aggregation rate with ADP when carotid artery ring added: 0.0%
[1]; 10 mg/Kg oral
  Aggregation rate with ADP when carotid artery ring added: 7.7%
[1]; 30 mg/Kg oral
  Aggregation rate with ADP when carotid artery ring added: 1.3%
[1]; 100 mg/Kg oral
  Aggregation rate with ADP when carotid artery ring added: 23.3%
Femoral artery; 0.01 mg/kg i.v.
  Blood pressure in femoral artery, A: Before administration: 93.8 mmHg
  Blood pressure in femoral artery, B: After administration: 91.3 mmHg
  Blood pressure in femoral artery, E: Lowering degree: 2.5 mmHg
  Blood pressure in femoral artery, F: Lowering rate: 2.7%
Femoral artery; 0.05 mg/kg i.v.
  Blood pressure in femoral artery, A: Before administration: 90.8 mmHg
  Blood pressure in femoral artery, B: After administration: 83.7 mmHg
  Blood pressure in femoral artery, E: Lowering degree: 7.1 mmHg
  Blood pressure in femoral artery, F: Lowering rate: 8.07%
Femoral artery; 0.1 mg/kg i.v.
  Blood pressure in femoral artery, A: Before administration: 88.8 mmHg
  Blood pressure in femoral artery, B: After administration: 78.1 mmHg
  Blood pressure in femoral artery, E: Lowering degree: 10.6 mmHg
  Blood pressure in femoral artery, F: Lowering rate: 11.6%
Femoral artery; 0.5 mg/kg i.v.
  Blood pressure in femoral artery, A: Before administration: 87.5 mmHg
  Blood pressure in femoral artery, B: After administration: 69.2 mmHg
  Blood pressure in femoral artery, E: Lowering degree: 18.3 mmHg
  Blood pressure in femoral artery, F: Lowering rate: 21.2%
Blood platelets; 3 mg/Kg oral (Table 5), read-out: Inhibitory rate of blood platelet aggregation
  inhibition at 3 mg/kg: 39%
Blood platelets; 10 mg/Kg oral (Table 5), read-out: Inhibitory rate of blood platelet aggregation
  inhibition at 10 mg/kg: 70.1%
Blood platelets; 10 mg/Kg oral, 1 hour after administration, collagen 7 to 10 μg/ml, read-out: Inhibitory rate (blood platelet aggregation)
  inhibition at 10 mg/kg: 70.1%
Blood platelets; 30 mg/Kg oral (Table 5), read-out: Inhibitory rate of blood platelet aggregation
  inhibition at 30 mg/kg: 85.5%
Blood platelets; 100 mg/Kg oral (Table 5), read-out: Inhibitory rate of blood platelet aggregation
  inhibition at 100 mg/kg: 100%
In vivo
  LD50: > 8000 mg/kg
Carotid artery; 0.01 mg/Kg i.v.
  Blood flow volume in carotid artery, A: Before administration: 15.6 mL/min
  Blood flow volume in carotid artery, B: After administration: 19.4 mL/min
  Blood flow volume in carotid artery, C: Increase degree: 3.9 mL/min
  Blood flow volume in carotid artery, D: Increase rate: 24.9%
Carotid artery; 0.05 mg/Kg i.v.
  Blood flow volume in carotid artery, A: Before administration: 13.9 mL/min
  Blood flow volume in carotid artery, B: After administration: 17.7 mL/min
  Blood flow volume in carotid artery, C: Increase degree: 3.8 mL/min
  Blood flow volume in carotid artery, D: Increase rate: 24.8%
Carotid artery; 0.1 mg/Kg i.v.
  Blood flow volume in carotid artery, A: Before administration: 14.5 mL/min
  Blood flow volume in carotid artery, B: After administration: 22.4 mL/min
  Blood flow volume in carotid artery, C: Increase degree: 7.9 mL/min
  Blood flow volume in carotid artery, D: Increase rate: 54.3%
Carotid artery; 0.5 mg/Kg i.v.
  Blood flow volume in carotid artery, A: Before administration: 16.7 mL/min
  Blood flow volume in carotid artery, B: After administration: 32.1 mL/min
  Blood flow volume in carotid artery, C: Increase degree: 15.4 mL/min
  Blood flow volume in carotid artery, D: Increase rate: 96.0%
rabbits; 3 mg/Kg oral, 2 hrs. after administration, of 4 rabbits
  Mortality (number of rabbits): 2
rabbits; 3 mg/Kg oral, 6 hrs. after administration, of 4 rabbits
  Mortality (number of rabbits): 1
rabbits; 3 mg/Kg oral, 24 hrs. after administration, of 4 rabbits
  Mortality (number of rabbits): 1
rabbits; 10 mg/Kg oral, 6 hrs. after administration, of 4 rabbits
  Mortality (number of rabbits): 4
rabbits; 30 mg/Kg oral, 24 hrs. after administration, of 8 (Compound 1) or 4 rabbits
  Mortality (number of rabbits): 2
rabbits; 30 mg/Kg oral, 48 hrs. after administration, of 8 (Compound 1) or 4 rabbits
  Mortality (number of rabbits): 2
